Measurements from PMC9959748, “Nucleoside Analogs That Inhibit SARS-CoV-2 Replication by Blocking Interaction of Virus Polymerase with RNA” (International Journal of Molecular Sciences, 2023).
Read-outs that look alike come from different tables or passages of the source.

Assays:
MDCK cells = conditions: concentration decreasing cell number by 50%
[1] = tested on: Influenza A/California/7/2009 (H1N1)pdm09; experiment: organism not typed; type: cell-based, Influenza virus; conditions: for IC50: read-out: IC50 ± SD Influenza Virus; for log reduction at 50 µM: read-out: Δlog10(TCID50) Influenza Virus; for SI (selectivity index), the ratio of CD50 to IC50: influenza virus
SARS-CoV-2 [2] = experiment: microbe, parasite or virus in culture; type: cell-based, SARS-CoV-2 (hCoV-19/Russia/Moscow-PMVL-12/2020 strain)
[3] = target: SARS-CoV-2 RdRp holoenzyme (nsp12, nsp7, nsp8) (Severe acute respiratory syndrome coronavirus 2, UniProt P0DTD1); experiment: biochemical; type: biochemical; conditions: for Inhibition of RNA extension by RdRp: 1 mM inhibitor pre-incubated with RdRp before RNA substrate (Figure 3A); for IC50: RdRp pre-incubated with inhibitor, then RNA substrate and ATP added, read-out: IC50 for inhibition of RdRp activity (RNA extension)
SARS-CoV-2 PIK35 strain = tested on: SARS-CoV-2 PIK35 strain; design: method as in PMID 35127150; conditions: Vero cells, read-out: EC50, inhibition of the reproduction of SARS-CoV-2; cited from earlier work
SARS-CoV-2 RdRp [4] = target: T1, SARS-CoV-2 RdRp (Severe acute respiratory syndrome coronavirus 2, UniProt P0DTD1); experiment: Electrophoretic mobility shift assay of RNA binding by RdRp; conditions: 1 mM inhibitor incubated with RdRp before RNA substrate
SARS-CoV-2 [5] = experiment: microbe, parasite or virus in culture; type: cell-based, SARS-CoV-2 (hCoV-19/Russia/Moscow-PMVL-12/2020 strain); conditions: for log reduction at 20 µM: measured at 20 µM
SARS-CoV-2 RdRp [6] = target: T1, SARS-CoV-2 RdRp; conditions: cited from earlier work
SARS-CoV-2 RdRp [7] = target: T1, SARS-CoV-2 RdRp; design: method as in PMID 33674802; conditions: interferes with template and primer RNA binding; cited from earlier work
[8] = concentration reducing the cell number by 50%, MTT
[9] = African green monkey (Chlorocebus aethiops)
[10] = Severe acute respiratory syndrome coronavirus 2, Vero C1008, Vero E6, vs DMSO-treated control, read-out: Δlog10(TCID50) SARS-CoV-2
[11] = Severe acute respiratory syndrome coronavirus 2, Vero C1008, 96 h, read-out: Δlog10(RNA), logarithmic change in the SARS-CoV-2 RNA levels

Compound	CD50 ± SD MDCK (MDCK cells) [µM]	Anti-SARS-CoV-2 activity grade (SARS-CoV-2 [2])	Inhibition of RNA extension by RdRp [3]	IC50 ([1]; MDCK) [µM]	log reduction at 50 µM ([1]; at 50 µM, MDCK cells)	CD50 ± SD Vero E6 (Vero E6 cells; [9]) [µM]	log reduction at 50 µM (SARS-CoV-2 [2]; [11])	log reduction at 50 µM (SARS-CoV-2 [5]; [10])	also measured
1-(β-D-Ribofuranosyl)-5-(4-tert-butylphenoxy)-uracil [Compound 13]	>1000	Moderate activity	–	–	–	–	–	–	Δlog10(TCID50) Influenza Virus ([1]; at 50 µM, MDCK cells): 0.5; IC50 [1]: > 50 µM; Δlog10(RNA), logarithmic change in the SARS-CoV-2 RNA levels (SARS-CoV-2 [2]): 0.8; CD50 ± SD Vero E6 (Vero E6 cells; [8]): >500 µM
CCCCCc1ccc(-c2cc3cn(C4C=CC(O)C4)c(=O)nc3[nH]2)cc1 (centres unmarked) [Compound 1, 1-(4’-hydroxy-2’-cyclopenten-1-yl)-6-(4-pentylphenyl)-3H-pyrrolo [2,3-d]-pyrimidine-2-one]	89 ± 12	–	completely blocked RNA synthesis	> 50	0	153 ± 5	–	–	IC50 [3]: 44 ± 2 µM; EC50 (SARS-CoV-2 PIK35 strain): 21 µM; log reduction at 10 µM (SARS-CoV-2 [2]; Severe acute respiratory syndrome coronavirus 2, Vero C1008, 96 h, measured at 10 µM (footnote *), Vero E6, vs DMSO, read-out: Δlog10(RNA), logarithmic change in the SARS-CoV-2 RNA levels): 1.5; Decrease of the amount of viral RNA (SARS-CoV-2 [2]; summary of Table 1): > 10 fold; Inhibition of RNA binding by RdRp, EMSA (SARS-CoV-2 RdRp [4]): fully prevented RNA binding; log reduction at 20 µM (SARS-CoV-2 [5]; [10]): 1; Decrease of the TCID50 value (SARS-CoV-2 [5]; summary of Table 1): ~ 10 fold
CC(C)(C)c1ccc(-c2cc3cn(C4C=CC(O)C4)c(=O)nc3[nH]2)cc1 (centres unmarked) [Compound 2, 1-(4’-hydroxy-2’-cyclopenten-1-yl)-6-(4-tert-butylphenyl)-3H-pyrrolo [2,3-d]-pyrimidine-2-one]	68 ± 5	–	–	~1	1.5	150 ± 15	0.3	–	EC50 (SARS-CoV-2 PIK35 strain): 53 µM; SI (selectivity index), the ratio of CD50 to IC50 ([1]; MDCK cells): 49.60; IC50 [1]: 1.37 ± 0.28 µM; log reduction at 20 µM (SARS-CoV-2 [5]; [10]): 0.5
CCCCCc1ccc(-c2cc3cn(C4C=CC(O)C4)c(=O)nc3o2)cc1 (centres unmarked) [Compound 3]	442 ± 21	Moderate activity	completely blocked RNA synthesis	> 50	0	>500	1.3	–	log reduction at 20 µM (SARS-CoV-2 [5]; [10]): 0.5
CCCCCc1ccc(-c2cc3cn([C@@H]4O[C@H](CO)[C@@H](O)[C@H]4O)c(=O)nc3o2)cc1 [Compound 4, 3-(β-D-Ribofuranosyl)-6-(4-pentylphenyl)-3H-furano [2,3-d]-pyrimidine-2-on]	652 ± 77	–	–	> 25	1	>500	0.2	–	log reduction at 20 µM (SARS-CoV-2 [5]; [10]): 0.5
CCCCCc1ccc(-c2cc3cn(COCCO)c(=O)nc3o2)cc1 [Compound 5, 3-((2-(Hydroxy)ethoxy)methyl)-6-(4-pentylphenyl)-3H-furano [2,3-d]-pyrimidine-2-on]	686 ± 46	Moderate activity	completely blocked RNA synthesis	~1	1.5	400 ± 98	0.3	1	IC50 [3]: 72 ± 20 µM; IC50 [1]: 1.34 ± 0.33 µM; Effect on SARS-CoV-2 viral RNA titer (SARS-CoV-2 [2]; summary of Table 1): only weakly affected; Effect on SARS-CoV-2 infectivity, TCID50 in Vero cells (SARS-CoV-2 [5]; summary of Table 1): stronger effects
CCCCCc1ccc(-c2cc3cn([C@@H]4O[C@H](CO)[C@@H](O)[C@H]4O)c(=O)[nH]c-3n2)cc1 [Compound 6, 3-(β-D-ribofuranosyl)-6-(4-pentylphenyl)-3H-pyrrolo [2,3-d]-pyrimidine-2-on]	614 ± 52	–	–	> 50	0	450 ± 166	0.2	0	Effect on SARS-CoV-2 viral RNA titer (SARS-CoV-2 [2]; summary of Table 1): inactive; Effect on SARS-CoV-2 infectivity, TCID50 in Vero cells (SARS-CoV-2 [5]; summary of Table 1): inactive
CCCCCc1ccc(-c2cc3cn(COCCO)c(=O)[nH]c-3n2)cc1 [Compound 7, 3-((2-(Hydroxy)ethoxy)methyl)-6-(4-pentylphenyl)-3H-pyrrolo [2,3-d]-pyrimidine-2-one]	74 ± 12	–	–	> 50	0.5	240 ± 19	0.4	0	Effect on SARS-CoV-2 viral RNA titer (SARS-CoV-2 [2]; summary of Table 1): inactive; Effect on SARS-CoV-2 infectivity, TCID50 in Vero cells (SARS-CoV-2 [5]; summary of Table 1): inactive
CC(C)(C)c1ccc(Nc2cn(C3C=CC(O)C3)c(=O)[nH]c2=O)cc1 (centres unmarked) [Compound 8]	552 ± 35	Moderate activity	–	> 50	0.5	>500	1.1	0.5	Effect on SARS-CoV-2 viral RNA titer (SARS-CoV-2 [2]; summary of Table 1): visible reduction; Effect on SARS-CoV-2 infectivity, TCID50 in Vero cells (SARS-CoV-2 [5]; summary of Table 1): weak protection
CC(C)(C)c1ccc(Nc2cn(C3C=CC(O)C3)c(=O)n(C3C=CC(O)C3)c2=O)cc1 (centres unmarked) [Compound 9]	392 ± 9	–	weaker effects	> 50	0.5	220 ± 23	0.8	0.5	–
CC(C)(C)c1ccc(Oc2cn(C3C=CC(O)C3)c(=O)n(C3C=CC(O)C3)c2=O)cc1 (centres unmarked) [Compound 10]	418 ± 42	–	completely blocked RNA synthesis	> 50	-0.5	500 ± 30	0.8	–	Inhibition of RNA binding by RdRp, EMSA (SARS-CoV-2 RdRp [4]): fully prevented RNA binding; log reduction at 2 µM (SARS-CoV-2 [5]; Severe acute respiratory syndrome coronavirus 2, Vero C1008, measured at 2 µM (footnote ***), Vero E6, vs DMSO-treated control, read-out: Δlog10(TCID50) SARS-CoV-2): 0.5
CC(C)(C)c1ccc(Oc2cn(C3C=CC(O)C3)c(=O)[nH]c2=O)cc1 (centres unmarked) [Compound 11]	>1000	Moderate activity	–	> 50	-0.5	440 ± 6	0.7	–	log reduction at 20 µM (SARS-CoV-2 [5]; [10]): 1
CC(C)(C)c1ccc(-c2cc3cn(COCCO)c(=O)[nH]c-3n2)cc1 [Compound 14, 3-((2-(Hydroxy)ethoxy)methyl)-6-(4-tert-butylphenyl)-3H-pyrrolo [2,3-d]-pyrimidine-2-one]	74 ± 18	Moderate activity	completely blocked RNA synthesis	~1	1.5	310 ± 24	0.4	1	IC50 [3]: 244 ± 58 µM; SI (selectivity index), the ratio of CD50 to IC50 ([1]; MDCK cells): 110.61; IC50 [1]: 0.67 ± 0.12 µM; Effect on SARS-CoV-2 viral RNA titer (SARS-CoV-2 [2]; summary of Table 1): only weakly affected; Inhibition of RNA binding by RdRp, EMSA (SARS-CoV-2 RdRp [4]): fully prevented RNA binding; Effect on SARS-CoV-2 infectivity, TCID50 in Vero cells (SARS-CoV-2 [5]; summary of Table 1): stronger effects
O=C(N[C@@H](Cc1ccc(O)cc1)C(=O)O)c1cc(-c2ccccc2)c(=O)n2c1sc1ccc(OC3CCCCC3)cc12 [HeE1-2Tyr]	–	–	–	–	–	–	–	–	IC50 (SARS-CoV-2 RdRp [6]): 27 µM
O=c1nc(NO)ccn1[C@@H]1O[C@H](CO)[C@@H](O)[C@H]1O [NHC, N4-hydroxycitidine, reference compound]	–	–	–	–	–	–	–	–	Δlog10(RNA), logarithmic change in the SARS-CoV-2 RNA levels (SARS-CoV-2 [2]; measured at 10 µM (footnote *), Vero E6, vs DMSO): 3.9 *; CD50 ± SD Vero E6 (Vero E6 cells; [8]): 80 ± 18 µM
CCOC(=O)C1=C[C@@H](OC(CC)CC)[C@H](NC(C)=O)[C@@H](N)C1 [Oseltamivir, reference compound]	500 ± 82	–	–	0.61 ± 0.15	–	–	–	–	SI (selectivity index), the ratio of CD50 to IC50 ([1]; MDCK cells): 820
Cc1c(C)c2c(c3c1CC[n+]1ccc(/C=C4\Sc5ccccc5N4C)cc1-3)-c1cccc(/C=C3\Sc4ccccc4N3C)[n+]1CC2 [PR673]	–	–	–	–	–	–	–	–	IC50 (SARS-CoV-2 RdRp [6]): ~4 µM
Cc1ccc(C(=O)Nc2ccc(S(=O)(=O)O)c3cc(S(=O)(=O)O)cc(S(=O)(=O)O)c23)cc1NC(=O)c1cccc(NC(=O)Nc2cccc(C(=O)Nc3cc(C(=O)Nc4ccc(S(=O)(=O)O)c5cc(S(=O)(=O)O)cc(S(=O)(=O)O)c45)ccc3C)c2)c1 [suramin]	–	–	–	–	–	–	–	–	Affinity of interaction with RdRp (SARS-CoV-2 RdRp [7]): micromolar affinity
